Reference: patent US11884649B2, “IRE1α inhibitors and uses thereof” (The Regents of the University of California, priority 2020, dated 2024)

Columns and labels:
[1] = target: T1, IRE1α* (Homo sapiens, UniProt O75460); experiment: In vitro kinase activity assay (IRE1α kinase inhibition); format: biochemical; conditions: for IC50: IRE1α kinase inhibition, read-out: IC50 IRE1a; for Ki: read-out: Inhibition of IRE1α*'s kinase activity, Ki
T1 construct: human IRE1α (residues 547-977, IRE1α*) was expressed in SF9 insect cells; His6 (N); made in house; host or cells: Sf9 insect cells (Bac-to-Bac baculovirus)
Description: A construct containing the cytosolic kinase and RNase domains of human IRE1α (residues 547-977, IRE1α*) was expressed in SF9 insect cells by using the Bac-to-Bac baculovirus expression system (Invitrogen) with a His6 tag at the N-terminus and purified with a nickel-nitriloacetic acid (Qiagen) column. To generate dP-IRE1α*, we removed basal phosphorylation sites by incubating IRE1α* with λ-PPase (New England Biolabs) at a molar ratio of 5:1 (IRE1α*: λ-PPase) in 50 mM HEPES pH 7.5, 100 mM NaCl, 1 mM MnCl2, 2 mM dithiothreitol (DTT) and 0.01% Brij 35 detergent (v/v) overnight at 4° C. Dephosphorylation was verified through western blotting using a universal phospho-protein detection agent (biotin-pIMAGO (Tymora Analytical Operations, Cat. No.: FL800) and imaged using a streptavidin-linked fluorophore.
In Vitro Kinase Activity Assay
Inhibitors (initial concentration of 10 or 60 μM, three-fold serial dilutions) were incubated with IRE1α* in cleavage buffer (20 mM HEPES, 0.05% Triton X-100 (v/v), 50 mM KCl, 1 mM MgCl2, 1 mM DTT, pH 7.5) for 30 min, followed by incubation with 10 μCi [γ^32P] ATP (3,000 Ci mmol^−1, PerkinElmer) at 23° C. for 3 hours. Samples were then spotted onto glass fiber paper (Easytab-C Glass Fiber Filter Paper, Perkin Elmer) and washed in twice with 0.5% phosphoric acid and autoradiographed using a GE Typhoon FLA 9000 Imager. Blots were quantitated using ImageQuant software. The percent inhibition was quantified by setting the background (no kinase well) as 0 and standardizing to IRE1α* without compound treatment (IRE1α*+DMSO). Dose-response curves were fit using “one-site fit log IC50” parameter using GraphPad Prism analysis software.
Compound Characterization (IC50 IRE1α Kinase Inhibition)

[2] = system: RIDD (IRE1α-dependent mRNA decay); experiment: Real-time PCR of RIDD mRNA targets in INS-1 cells overexpressing IRE1α (Dox); format: cell-based, rat; conditions: 3, 10 μM for 1 hour, then Dox (5 ng/mL) for 24 hours
Description: (§1) RNA Isolation, Quantitative Real-Time PCR, and Primers
(§2) INS-1 or isogenic IRE1α-overexpressing INS-1 cells were plated onto Poly-D-Lysine coated tissue culture plate and grown for 48 hrs. Inhibitors or DMSO were added to the media and incubated for 1 hour at 37° C. with 5% CO2 prior to addition of ER stress agents or Dox as indicated. RNA was isolated from whole cells using either QIAGEN RNeasy Mini kits or Trizol (Invitrogen) and reverse transcribed as above to obtain total cDNA. Then, XBP-1 primers were used to amplify an XBP-1 amplicon spanning the 26 nt intron from the cDNA samples in a regular 3-step PCR. Thermal cycles were: 5 min at 95° C., 30 cycles of 30 s at 95° C., 30 s at 60° C., and 1 min at 72° C., followed by 72° C. for 15 min, and hold at 4° C. Primers used for XBP-1 mRNA splicing were as follows: sense primer XBP1.3 S (5′ […]-3′ (SEQ ID NO:2)) and antisense primer XBP1.2AS (5′-[…]-3′ (SEQ ID NO:3)). PCR fragments were then digested by PstI, resolved on 3% agarose gels, stained with EtBr and quantified by densitometry using ImageJ (NIH). For standard mRNA detection, generally […] total RNA was reverse transcribed using the QuantiTect Reverse Transcription Kit (QIAGEN). For qPCR, we used SYBR green (QIAGEN) and StepOnePlus Real-Time PCR System (Applied Biosystems). Thermal cycles were: 5 min at 95° C., 40 cycles of 15 sec at 95° C., 30 sec at 60° C. Gene expression levels were normalized to Beta Actin. Primers used for qPCR of RIDD targets were as follows: Beta Actin Fwd: 5′-[…]-3′ (SEQ ID NO:4), Beta Actin Rev: 5′-[…]-3′ (SEQ ID NO:5), Insulin 1 Fwd: 5′-GTCCTCTGGGAGCCCAAG-3′ (SEQ ID NO:6), Insulin 1 Rev: 5′-ACAGAGCCTCCACCAGG-3′ (SEQ ID NO:7), Insulin 2 Fwd: 5′-ATCCTCTGGGAGCCCCGC-3′ (SEQ ID NO:8), Insulin 2 Rev: 5′-AGAGAGCTTCCACCAAG-3′ (SEQ ID NO:9), Blos1 Fwd: 5′-[…]-3′ (SEQ ID NO:10), and Blos1 Rev: 5′-[…]-3′ (SEQ ID NO:11).
Real-Time PCR (Q-PCR) used SYBR green and Step OnePlus Real-Time PCR System (Applied Biosystems). Thermal cycles were: 5 min at 95° C., 40 cycles of 15 s at 95° C., 30 s at 60° C. Gene expression levels were normalized to GAPDH. Q-PCR Sense/antisense primers used: Rat GAPDH, 5′-[…]-3′ (SEQ ID NO:14) and 5′-[…]-3′ (SEQ ID NO:15); Rat Ins1, 5′-GTCCTCTGGGAGCCCAAG-3′ (SEQ ID NO:6) and 5′-ACAGAGCCTCCACCAGG-3′ (SEQ ID NO:7); Rat Pdia4, 5′-CGTCTCGCCCTGATTCGT-3′ (SEQ ID NO:16) and 5′-[…]-3′ (SEQ ID NO:17); Rat Blos1, 5′-[…]-3′ (SEQ ID NO:18) and 5′-TGTCCAGTTCGATGCTCCG-3′ (SEQ ID NO:19).
Real-time PCR for FIGS. 34A-34F: Real-Time PCR (Q-PCR) used SYBR green and Step OnePlus Real-Time PCR System (Applied Biosystems). Thermal cycles were: 5 min at 95° C., 40 cycles of 15 s at 95° C., 30 s at 60° C. Gene expression levels were normalized to GAPDH. Q-PCR Sense/antisense primers used: Rat GAPDH, 5′-[…]-3′ (SEQ ID NO:20) and 5′-[…]-3′ (SEQ ID NO:21); Rat Ins1, 5′-GTCCTCTGGGAGCCCAAG-3′ (SEQ ID NO:6) and 5′-ACAGAGCCTCCACCAGG-3′ (SEQ ID NO:7); Rat Ins2, 5′-ATCCTCTGGGAGCCCCGC-3′ (SEQ ID NO:8) and 5′-AGAGAGCTTCCACCAAG-3′ (SEQ ID NO:9); Rat Pdia4, 5′-[…]-3′(SEQ ID NO:22) and 5′-[…]-3′ (SEQ ID NO:23); Rat Blos1, 5′-[…]-3′ (SEQ ID NO:18) and 5′-TGTCCAGTTCGATGCTCCG-3′ (SEQ ID NO:19).

[3] = system: XBP1 mRNA splicing; experiment: XBP1 mRNA splicing in INS-1 cells conditionally overexpressing IRE1α (Dox); format: cell-based, rat; conditions: 3, 10 μM for 1 hour, then Dox (1 μg/mL) for 4 hours
Description: as §1, §2
(§3) RNA was extracted using Trizol (Invitrogen), DNaseI treated, and cDNA products encompassing the intron amplified by QuantiTect Reverse Transcription Kit (Qiagen). sense Primer rXBP Forward (5′-[…]-3′ (SEQ ID NO:12)) and antisense primer rXBP Reverse (5′-[…]-3′ (SEQ ID NO:13)) were used. PCR fragments were digested by PstI, resolved on 3% agarose gels, stained with EtBr, and quantified by densitometry.
as §3, with “XBP1 splicing for FIGS. 33A-33F: RNA” for “RNA”, “(Invitrogen),” for “(Invitrogen), DNaseI treated, and”, “(Qiagen). Sense” for “(Qiagen). sense”, “rXBP splicing” for “rXBP”

T1 sequence (O75460 547-977): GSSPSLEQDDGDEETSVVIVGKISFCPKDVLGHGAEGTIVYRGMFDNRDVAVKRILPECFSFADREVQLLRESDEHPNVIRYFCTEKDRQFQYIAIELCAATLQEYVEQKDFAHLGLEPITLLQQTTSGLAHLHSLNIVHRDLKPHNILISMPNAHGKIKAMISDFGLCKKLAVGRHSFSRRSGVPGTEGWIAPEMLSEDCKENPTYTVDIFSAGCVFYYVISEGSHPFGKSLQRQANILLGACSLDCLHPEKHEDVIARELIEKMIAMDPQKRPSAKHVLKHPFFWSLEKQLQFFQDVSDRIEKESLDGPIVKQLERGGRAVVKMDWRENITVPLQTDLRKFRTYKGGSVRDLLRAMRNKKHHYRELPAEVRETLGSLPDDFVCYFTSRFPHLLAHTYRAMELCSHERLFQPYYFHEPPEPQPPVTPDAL

Structure (SMILES)	IC50 [1] [nM]	Ki [1] [nM]	RIDD mRNA targets (Ins1, Ins2, Pdia4) [2]	% spliced XBP1 amplicons [3]
Cc1cc(NS(=O)(=O)CC(F)(F)F)c2ccccc2c1Oc1ncccc1-c1ccnc(N[C@H]2CCCNC2)n1 [LBC-0000389, (S)-2,2,2-trifluoro-N-(3-methyl-4-((3-(2-(piperidin-3-ylamino)pyrimidin-4-yl)pyridin-2-yl)oxy)naphthalen-1-yl) ethane sulfonamide]	8	–	–	–
Cc1c(F)c(NS(=O)(=O)CC(F)(F)F)c2ccccc2c1Oc1ncccc1-c1ccnc(N[C@H]2CCCNC2)n1 [LBC-0000390, (S)-2,2,2-trifluoro-N-(2-fluoro-3-methyl-4-((3-(2-(piperidin-3-ylamino)pyrimidin-4-yl)pyridin-2-yl)oxy)naphthalen-1-yl) ethane-1-sulfonamide]	9.5	–	–	–
O=S(=O)(CC(F)(F)F)Nc1ccc(Oc2ncccc2-c2ccnc(N[C@@H]3CNC[C@@H](F)C3)n2)c2ccccc12 [LBC-0000398, 2,2,2-trifluoro-N-(4-((3-(2-(((3S,5S)-5-fluoropiperidin-3-yl)amino)pyrimidin-4-yl)pyridin-2-yl)oxy)naphthalen-1-yl) ethane-1-sulfonamide]	7.2	–	–	–
Cc1c(F)c(NS(=O)(=O)CC(F)(F)F)c2ccccc2c1Oc1ncccc1-c1ccnc(N[C@@H]2CNC[C@@H](F)C2)n1 [LBC-0000399, 2,2,2-trifluoro-N-(2-fluoro-4-((3-(2-(((3S,5S)-5-fluoropiperidin-3-yl)amino)pyrimidin-4-yl)pyridin-2-yl)oxy)-3-methylnaphthalen-1-yl) ethane-1-sulfonamide]	5.1	–	–	–
Cc1c(F)c(NS(C)(=O)=O)c2ccccc2c1Oc1ncccc1-c1ccnc(N[C@H]2CCCNC2)n1 [LBC-0000401, (S)—N-(2-fluoro-3-methyl-4-((3-(2-(piperidin-3-ylamino)pyrimidin-4-yl)pyridin-2-yl)oxy)naphthalen-1-yl) methane sulfonamide]	16	–	–	–
Nc1ccc(Oc2ncccc2-c2ccnc(N[C@H]3CC[C@H](N)CC3)n2)cc1F [compound 1, (1r,4r)-N1-(4-(2-(4-amino-3-fluorophenoxy)pyridin-3-yl)pyrimidin-2-yl) cyclohexane-1,4-diamine]	–	480	–	–
N[C@H]1CC[C@H](Nc2nccc(-c3cccnc3Oc3ccc(NS(=O)(=O)C4CC4)c4ccccc34)n2)CC1 [compound 5, N-(4-(3-(2-((1r,4r)-4-aminocyclohexylamino)pyrimidin-4-yl)pyridin-2-yloxy)naphthalen-1-yl)cyclopropanesulfonamide]	–	140	–	–
N[C@H]1CC[C@H](Nc2nccc(-c3cccnc3Oc3cccc4c(NS(=O)(=O)C5CCC5)cccc34)n2)CC1 [compound 6, N-(5-(3-(2-((1r,4r)-4-aminocyclohexylamino)pyrimidin-4-yl)pyridin-2-yloxy)naphthalen-1-yl) cyclobutanesulfonamide]	–	98	–	–

Now from value to molecule, other results behind:

IC50 [1] [nM]	Ki [1] [nM]	Structure (SMILES)	RIDD mRNA targets (Ins1, Ins2, Pdia4) [2]	% spliced XBP1 amplicons [3]
7.4	–	Cc1cc(NS(=O)(=O)CC2CC2)c2ccccc2c1Oc1ncccc1-c1ccnc(N[C@@H]2CNC[C@@H](F)C2)n1 [LBC-409, 1-cyclopropyl-N-(4-((3-(2-(((3S,5S)-5-fluoropiperidin-3-yl)amino)pyrimidin-4-yl)pyridin-2-yl)oxy)-3-methylnaphthalen-1-yl)methanesulfonamide]	block RIDD	do not suppress XBP mRNA splicing
3.4	–	Cc1cc(NS(=O)(=O)CCC(F)(F)F)c2ccccc2c1Oc1ncccc1-c1ccnc(N[C@@H]2CNC[C@@H](F)C2)n1 [LBC-410, 3,3,3-trifluoro-N-(4-((3-(2-(((3S,5S)-5-fluoropiperidin-3-yl)amino)pyrimidin-4-yl)pyridin-2-yl)oxy)-3-methylnaphthalen-1-yl)propane-1-sulfonamide]	block RIDD	suppresses XBP1 splicing
4.4	–	Cc1cc(NS(=O)(=O)C2CCC2)c2ccccc2c1Oc1ncccc1-c1ccnc(N[C@@H]2CNC[C@@H](F)C2)n1 [LBC-411, N-(4-((3-(2-(((3S,5S)-5-fluoropiperidin-3-yl)amino)pyrimidin-4-yl)pyridin-2-yl)oxy)-3-methylnaphthalen-1-yl)cyclobutanesulfonamide]	block RIDD	do not suppress XBP mRNA splicing
13	–	Cc1cc(NS(=O)(=O)C2CC2)c2ccccc2c1Oc1ncccc1-c1ccnc(N[C@@H]2CNC[C@@H](F)C2)n1 [LBC-412, N-(4-((3-(2-(((3S,5S)-5-fluoropiperidin-3-yl)amino)pyrimidin-4-yl)pyridin-2-yl)oxy)-3-methylnaphthalen-1-yl) cyclopropane sulfonamide]	block RIDD	do not suppress XBP mRNA splicing
